Biological target: T1, Bcl-2 protein (Homo sapiens, UniProt P10415, DELINS35-91DVEENRTEAPEGTESE, form not given)
T1 construct: fused on or other part: Bcl-xL (Q07817) residues 29-44 stand in place of Bcl-2's own unstructured loop 35-91; The C-terminal membrane anchor (208-239) is absent
Assay: Bcl-2 fluorescence polarization assay (FPA) binding
Conditions: 10 nM Bcl-2 protein, 1 nM fluorescein-labeled BAX peptide, room temperature, read-out: Bcl-2 FPA 11pt Ki
How it was run: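 Competitive fluorescence polarization with 10 nM Bcl-2 protein and 1 nM fluorescein-labeled BAX peptide in 20 mM phosphate pH 7.4, 1 mM EDTA, 0.05% PF-68. Compound dilutions in DMSO spanned […] to 10 pM; mix shaken 2 min, polarization read at room temperature (ex 485/em 530 nm); Ki values calculated.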

T1 sequence (P10415 with tags, fused parts or gaps with the stated changes): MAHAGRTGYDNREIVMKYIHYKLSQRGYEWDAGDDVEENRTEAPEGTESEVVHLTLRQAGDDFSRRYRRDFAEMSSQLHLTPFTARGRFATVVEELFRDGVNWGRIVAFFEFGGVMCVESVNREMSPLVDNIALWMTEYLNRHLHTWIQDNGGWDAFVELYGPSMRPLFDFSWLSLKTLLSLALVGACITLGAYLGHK

SMILES	Ki [nM]
O=C(NS(=O)(=O)c1ccc(NCC2CCCCC2)c([N+](=O)[O-])c1)c1ccc(N2CCN(C34CC5CC(CC(C5)C3)C4)CC2)cc1 [Example 54, 4-{4-[adamantan-1-yl]piperazin-1-yl}-N-({4-[(cyclohexylmethyl)amino]-3-nitrophenyl}sulfonyl)benzamide]	> 9730
CC12CC3CC(C)(C1)CC(N1CCN(c4ccc(C(=O)NS(=O)(=O)c5ccc(NCC6CCCCC6)c([N+](=O)[O-])c5)cc4)CC1)(C3)C2 [Example 55, N-({4-[(cyclohexylmethyl)amino]-3-nitrophenyl}sulfonyl)-4-{4-[3,5-dimethyladamantan-1-yl]piperazin-1-yl}benzamide]	352
CC1(C)O[C@@H]2[C@@H](CO[C@@]3(COS(=O)(=O)NC(=O)c4ccc(N5CCN(Cc6ccccc6-c6ccc(Cl)cc6)CC5)cc4)OC(C)(C)O[C@@H]23)O1 [Example 56, [(3 aS,5aR,8aR,8bS)-2,2,7,7-tetramethyltetrahydro-3aH-bis[1,3]dioxolo[4,5-b:4′,5′-d]pyran-3a-yl]methyl (4-{4-[(4′-chlorobiphenyl-2-yl)methyl]piperazin-1-yl}benzoyl)sulfamate]	< 20
CC1(C)[C@H]2CC[C@]1(CS(=O)(=O)NC(=O)c1ccc(N3CCN(Cc4ccccc4-c4ccc(Cl)cc4)CC3)cc1)C(=O)C2 [Example 57, 4-{4-[(4′-chlorobiphenyl-2-yl)methyl]piperazin-1-yl}-N-({[(1R,4S)-7,7-dimethyl-2-oxobicyclo[2.2.1]hept-1-yl]methyl}sulfonyl)benzamide]	134
O=C(NS(=O)(=O)c1ccc(NCC2CCCCC2)c([N+](=O)[O-])c1)c1ccc(N2CCN(CCC34CC5CC(CC(C5)C3)C4)CC2)cc1 [Example 58, 4-(4-{2-[adamantan-1-yl]ethyl}piperazin-1-yl)-N-({4-[(cyclohexylmethyl)amino]-3-nitrophenyl}sulfonyl)benzamide]	> 18700
CC1(C)[C@@H]2CC[C@@]1(CS(=O)(=O)NC(=O)c1ccc(N3CCN(Cc4ccccc4-c4ccc(Cl)cc4)CC3)cc1)C(=O)C2 [Example 59, 4-{4-[(4′-chlorobiphenyl-2-yl)methyl]piperazin-1-yl}-N-({[(1S,4R)-7,7-dimethyl-2-oxobicyclo[2.2.1]hept-1-yl]methyl}sulfonyl)benzamide]	66.7
C[C@@H]1[C@@H](N(Cc2ccc(-c3ccc(C(=O)NS(=O)(=O)c4ccc(NCC5CCCCC5)c([N+](=O)[O-])c4)cc3)cc2)C(=O)CCc2ccccc2)C[C@H]2C[C@@H]1C2(C)C [Example 60, N-({4-[(cyclohexylmethyl)amino]-3-nitrophenyl}sulfonyl)-4′-({(3-phenylpropanoyl)[(1S,2S,3S,5R)-2,6,6-trimethylbicyclo[3.1.1]hept-3-yl]amino}methyl)biphenyl-4-carboxamide]	504
CC1(C)[C@H]2C=C(c3ccccc3C=C3CCN(c4ccc(C(=O)NS(=O)(=O)c5ccc(NCC6CCOCC6)c([N+](=O)[O-])c5)cc4)CC3)[C@]1(C)CC2 [Example 61, N-({3-nitro-4-[(tetrahydro-2H-pyran-4-ylmethyl)amino]phenyl}sulfonyl)-4-(4-{2-[(1R,4R)-1,7,7-trimethylbicyclo[2.2.1]hept-2-en-2-yl]benzylidene}piperidin-1-yl)benzamide]	< 20
O=C(NS(=O)(=O)c1ccc(NCC2CCOCC2)c([N+](=O)[O-])c1)c1ccc(N2CCN(Cc3ccccc3-c3ccc(-c4nc(-c5ccccc5)cs4)s3)CC2)cc1 [Example 62, N-({3-nitro-4-[(tetrahydro-2H-pyran-4-ylmethyl)amino]phenyl}sulfonyl)-4-(4-{2-[5-(4-phenyl-1,3-thiazol-2-yl)-2-thienyl]benzyl}piperazin-1-yl)benzamide]	281
O=C(NS(=O)(=O)c1ccc(NCC2CCOCC2)c([N+](=O)[O-])c1)c1ccc(N2CCN(Cc3ccccc3-c3ccc(-c4nc(C56CC7CC(CC(C7)C5)C6)cs4)s3)CC2)cc1 [Example 63, 4-[4-(2-{5-[4-(adamantan-1-yl)-1,3-thiazol-2-yl]-2-thienyl}benzyl)piperazin-1-yl]-N-({3-nitro-4-[(tetrahydro-2H-pyran-4-ylmethyl)amino]phenyl}sulfonyl)benzamide]	278
O=C(NS(=O)(=O)c1ccc(NCC2CCOCC2)c([N+](=O)[O-])c1)c1ccc(N2CCN(Cc3ccccc3-c3ccc(C(=O)Nc4ccc5oc(-c6ccccc6)nc5c4)o3)CC2)cc1 [Example 64, 5-{2-[(4-{4-[({3-nitro-4-[(tetrahydro-2H-pyran-4-ylmethyl)amino]phenyl}sulfonyl)carbamoyl]phenyl}piperazin-1-yl)methyl]phenyl}-N-(2-phenyl-1,3-benzoxazol-5-yl)-2-furamide]	1470
O=C(NS(=O)(=O)c1ccc(NCC2CCOCC2)c([N+](=O)[O-])c1)c1ccc(N2CCN(Cc3ccccc3C(=C(c3ccccc3)c3ccccc3)c3ccccc3)CC2)cc1 [Example 65, N-({3-nitro-4-[(tetrahydro-2H-pyran-4-ylmethyl)amino]phenyl}sulfonyl)-4-{4-[2-(triphenylvinyl)benzyl]piperazin-1-yl}benzamide]	928
CN1c2ccccc2-c2ccccc2C1c1ccccc1CN1CCN(c2ccc(C(=O)NS(=O)(=O)c3ccc(NCC4CCOCC4)c([N+](=O)[O-])c3)cc2)CC1 (stereo not shown) [Example 66, 4-{4-[2-(5-methyl-5,6-dihydrophenanthridin-6-yl)benzyl]piperazin-1-yl}-N-({3-nitro-4-[(tetrahydro-2H-pyran-4-ylmethyl)amino]phenyl}sulfonyl)benzamide]	7.87
CC1(C)OB(c2ccccc2CN2CCN(c3ccc(C(=O)NS(=O)(=O)c4ccc(NCC5CCOCC5)c([N+](=O)[O-])c4)cc3)CC2)OC1(C)C [Example 67, N-({3-nitro-4-[(tetrahydro-2H-pyran-4-ylmethyl)amino]phenyl}sulfonyl)-4-{4-[2-(4,4,5,5-tetramethyl-1,3,2-dioxaborolan-2-yl)benzyl]piperazin-1-yl}benzamide]	4040
COc1cccc(OC)c1C(=O)c1sccc1-c1ccccc1C=C1CCN(c2ccc(C(=O)NS(=O)(=O)c3ccc(NCC4CCOCC4)c([N+](=O)[O-])c3)cc2)CC1 [Example 68, 4-(4-{2-[2-(2,6-dimethoxybenzoyl)-3-thienyl]benzylidene}piperidin-1-yl)-N-({3-nitro-4-[(tetrahydro-2H-pyran-4-ylmethyl)amino]phenyl}sulfonyl)benzamide]	92.6
O=C(NS(=O)(=O)c1ccc(NCC2CCOCC2)c([N+](=O)[O-])c1)c1ccc(N2CCC(=Cc3ccccc3-c3cn(C45CC6CC(CC(C6)C4)C5)nc3C(=O)N(c3ccccc3)c3ccccc3)CC2)cc1 [Example 69, 1-[adamantan-1-yl]-4-{2-[(1-{4-[({3-nitro-4-[(tetrahydro-2H-pyran-4-ylmethyl)amino]phenyl}sulfonyl)carbamoyl]phenyl}piperidin-4-ylidene)methyl]phenyl}-N,N-diphenyl-1H-pyrazole-3-carboxamide]	789
O=C(NS(=O)(=O)c1ccc(NCC2CCOCC2)c([N+](=O)[O-])c1)c1ccc(N2CCN(Cc3ccccc3N(C(=O)CCc3ccccc3)C3CC4CC3C3CCCC43)CC2)cc1 (stereo not shown) [Example 70, N-({3-nitro-4-[(tetrahydro-2H-pyran-4-ylmethyl)amino]phenyl}sulfonyl)-4-(4-{2-[octahydro-1H-4,7-methanoinden-5-yl(3-phenylpropanoyl)amino]benzyl}piperazin-1-yl)benzamide]	35.4
O=C(NS(=O)(=O)c1ccc(NCC2CCOCC2)c([N+](=O)[O-])c1)c1ccc(N2CCC(=Cc3ccccc3-c3ccc(CN4C5CCCC4CC5)s3)CC2)cc1 [Example 71, 4-[4-(2-{5-[8-azabicyclo[3.2.1]oct-8-ylmethyl]-2-thienyl}benzylidene)piperidin-1-yl]-N-({3-nitro-4-[(tetrahydro-2H-pyran-4-ylmethyl)amino]phenyl}sulfonyl)benzamide]	< 20
C[C@@H]1[C@@H](Nc2ccc(C=C3CCN(c4ccc(C(=O)NS(=O)(=O)c5ccc(NCC6CCOCC6)c([N+](=O)[O-])c5)cc4)CC3)cc2)C[C@H]2C[C@@H]1C2(C)C [Example 72, N-({3-nitro-4-[(tetrahydro-2H-pyran-4-ylmethyl)amino]phenyl}sulfonyl)-4-[4-(4-{[(1S,2S,3S,5R)-2,6,6-trimethylbicyclo[3.1.1]hept-3-yl]amino}benzylidene)piperidin-1-yl]benzamide]	287
C[C@@H]1[C@@H](Nc2cccc(C=C3CCN(c4ccc(C(=O)NS(=O)(=O)c5ccc(NCC6CCOCC6)c([N+](=O)[O-])c5)cc4)CC3)c2)C[C@H]2C[C@@H]1C2(C)C [Example 73, N-({3-nitro-4-[(tetrahydro-2H-pyran-4-ylmethyl)amino]phenyl}sulfonyl)-4-[4-(3-{[(1S,2S,3S,5R)-2,6,6-trimethylbicyclo[3.1.1]hept-3-yl]amino}benzylidene)piperidin-1-yl]benzamide]	93.2
O=C(NS(=O)(=O)c1ccc(NCC2CCOCC2)c([N+](=O)[O-])c1)c1ccc(N2CCC(=Cc3ccccc3-c3ccc(-c4nc(C56CC7CC(CC(C7)C5)C6)cs4)s3)CC2)cc1 [Example 74, 4-[4-(2-{5-[4-(adamantan-1-yl)-1,3-thiazol-2-yl]-2-thienyl}benzylidene)piperidin-1-yl]-N-({3-nitro-4-[(tetrahydro-2H-pyran-4-ylmethyl)amino]phenyl}sulfonyl)benzamide]	102
O=C(NS(=O)(=O)c1ccc(NCC2CCOCC2)c([N+](=O)[O-])c1)c1ccc(N2CCC(=Cc3ccccc3-c3ccc(-c4nc(-c5ccccc5)cs4)s3)CC2)cc1 [Example 75, N-({3-nitro-4-[(tetrahydro-2H-pyran-4-ylmethyl)amino]phenyl}sulfonyl)-4-(4-{2-[5-(4-phenyl-1,3-thiazol-2-yl)-2-thienyl]benzylidene}piperidin-1-yl)benzamide]	251

Source: patent publication US8188077B2, “Apoptosis-inducing agents for the treatment of cancer and immune and autoimmune diseases” (Abbott Laboratories, priority 2010, dated 2012)
